Where a SMILES comes first, the peptide text is derived from it. [ ]: non-standard residue; d: D form. βAla = NCCC(=O)O

The first assay deals with second monoclonal antibody against hCG.
Assay: not given
Settings: not given
With `CC[C@H](C)[C@H](NC(=O)[C@@H]1CCCN1C(=O)CNC(=O)[C@H](C)NC(=O)[C@H](CO)NC(=O)CNC(=O)[C@H](CO)NC(=O)CN)C(=O)N[C@@H](Cc1ccc(O)cc1)C(=O)N[C@H](C(=O)N[C@@H](Cc1ccccc1)C(=O)NCC(=O)NCCC(=O)O)C(C)C` [SEQ ID NO: 19, Gly--Ser--Gly--Ser--Ala--Gly--Pro--Ile--Tyr--Val--Phe--Gly--βAla] (H-GSGSAGPIYVFG[βAla]-OH), the “Krel (relative binding affinity)” value is reported as 6.6.

Regarding `CSCC[C@H](NC(=O)[C@H](Cc1ccc(O)cc1)NC(=O)[C@H](CCC(N)=O)NC(=O)[C@@H]1CCCN1C(=O)CNC(=O)[C@H](C)NC(=O)[C@H](CO)NC(=O)CNC(=O)[C@H](CO)NC(=O)CN)C(=O)N[C@@H](Cc1ccccc1)C(=O)NCC(=O)NCCC(=O)O` [SEQ ID NO: 23, Gly--Ser--Gly--Ser--Ala--Gly--Pro--Gln--Tyr--Met--Phe--Gly--βAla] (H-GSGSAGPQYMFG[βAla]-OH), the “Krel (relative binding affinity)” value stood at 1.0.

Consider `C[C@H](NC(=O)[C@H](CO)NC(=O)CNC(=O)[C@H](CO)NC(=O)CN)C(=O)NCC(=O)N1CCC[C@H]1C(=O)N[C@@H](CCCNC(=N)N)C(=O)N[C@@H](Cc1ccc(O)cc1)C(=O)N[C@@H](CC(N)=O)C(=O)N[C@@H](Cc1ccccc1)C(=O)NCC(=O)NCCC(=O)O` [SEQ ID NO: 21, Gly--Ser--Gly--Ser--Ala--Gly--Pro--Arg--Tyr--Asn--Phe--Gly--βAla] (H-GSGSAGPRYNFG[βAla]-OH), for which the “Krel (relative binding affinity)” value was 1.6.

In the case of `CC(C)[C@H](NC(=O)[C@@H]1CCCN1C(=O)CNC(=O)[C@H](C)NC(=O)[C@H](CO)NC(=O)CNC(=O)[C@H](CO)NC(=O)CN)C(=O)N[C@@H](Cc1ccc(O)cc1)C(=O)N[C@@H](CO)C(=O)N[C@@H](Cc1ccccc1)C(=O)NCC(=O)NCCC(=O)O` [SEQ ID NO: 20, Gly--Ser--Gly--Ser--Ala--Gly--Pro--Val--Tyr--Ser--Phe--Gly--βAla] (H-GSGSAGPVYSFG[βAla]-OH), the “Krel (relative binding affinity)” value is 2.0.

On to `CC[C@H](C)[C@H](NC(=O)[C@@H]1CCCN1C(=O)CNC(=O)[C@H](C)NC(=O)[C@H](CO)NC(=O)CNC(=O)[C@H](CO)NC(=O)CN)C(=O)N[C@@H](Cc1ccc(O)cc1)C(=O)N[C@@H](CC(=O)O)C(=O)N[C@@H](Cc1ccccc1)C(=O)NCC(=O)NCCC(=O)O` [SEQ ID NO: 22, Gly--Ser--Gly--Ser--Ala--Gly--Pro--Ile--Tyr--Asp--Phe--Gly--βAla] (H-GSGSAGPIYDFG[βAla]-OH), for which the “Krel (relative binding affinity)” value amounted to 1.3.

The next assay deals with anti-hCG monoclonal antibody directed against a portion of the β-subunit of hCG. Description: EIA binding of BSA-conjugated peptide with anti-hCG monoclonal antibody. The settings on record: peptide conjugated to BSA, absorbed on 96-well plate; antibody overnight at 4° C; alkaline phosphatase labeled protein A. An excerpt: The peptide was conjugated through its thiol group to BSA using a heterobifunctional cross-linking reagent (succinimidyl 4-(N-maleimidomethyl)cyclohexane-1-carboxylate). The conjugates were first absorbed on the wells of a ninety-six well plate. Nonspecific binding sites on the surface was masked by unlabeled BSA. […] Alkaline phosphatase labeled protein A was used for the color development.
Turning to “H2 N-Gly-Gly-Arg-Leu-Pro-Gly-Pro-Ser-Asp-Cys-Gly-COOH (H-GGRLPGPSDCG-OH) [EXAMPLE I]”, the “binding with anti-hCG antibody (EIA response)” value is “positive results”.

The record behind these values is patent publication US5380668A (University of Utah Research Foundation, priority 1993, dated 1995).
